Measured values reported in patent US12297194B2, “N2-phenylpyrimidine-2,4-diamine compounds, and preparation methods and methods of use thereof” (BRIDGE BIOTHERAPEUTICS, INC., priority 2021, dated 2025).

Columns and labels:
Format in all cases: cell-based, murine
[1] = biological target: Ba/F3 EGFR Del19/C797S mutants (Homo sapiens, UniProt P00533, C797S, cells depend on it, form not given); assay: CellTiter-Glo cell viability, Ba/F3 EGFR Del19/C797S cells; conditions: 72 hours, read-out: Ba/F3 EGFR mutant cell (IC50, nM) D/C
Method in brief: (§1)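 Ba/F3 cells expressing wild-type or mutant EGFR were seeded at 2500 cells/well and dosed 24 h later with compound at 0–2000 nM (10 points). After 72 h, viability was read by CellTiter-Glo luminescence, and IC50 values came from curve fitting.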

[2] = biological target: Ba/F3 EGFR Del19/T790M/C797S mutants (Homo sapiens, UniProt P00533, T790M/C797S, cells depend on it, form not given); assay: CellTiter-Glo cell viability, Ba/F3 EGFR Del19/T790M/C797S cells; conditions: 72 hours, read-out: Ba/F3 EGFR mutant cell (IC50, nM) D/T/C
Method in brief: as §1

[3] = biological target: Ba/F3 EGFR L858R/C797S mutants (Homo sapiens, UniProt P00533, C797S/L858R, cells depend on it); assay: CellTiter-Glo cell viability, Ba/F3 EGFR L858R/C797S cells; conditions: 72 hours, read-out: Ba/F3 EGFR mutant cell (IC50, nM) L/C
Method in brief: as §1

[4] = biological target: Ba/F3 EGFR L858R/T790M/C797S mutants (Homo sapiens, UniProt P00533, T790M/C797S/L858R, cells depend on it); assay: CellTiter-Glo cell viability, Ba/F3 EGFR L858R/T790M/C797S cells; conditions: 72 hours, read-out: Ba/F3 EGFR mutant cell (IC50, nM) L/T/C
Method in brief: as §1

[5] = biological target: Ba/F3 EGFR Del19/T790M mutants (Homo sapiens, UniProt P00533, T790M, cells depend on it, form not given); assay: CellTiter-Glo cell viability, Ba/F3 EGFR Del19/T790M cells; conditions: 72 hours, read-out: Ba/F3 EGFR mutant cell (IC50, nM) D/T
Method in brief: as §1

[6] = biological target: Ba/F3 EGFR Wild-type (Homo sapiens, UniProt P00533); assay: CellTiter-Glo cell viability, Ba/F3 EGFR wild-type cells; conditions: 72 hours, read-out: Ba/F3 EGFR mutant cell (IC50, nM) WT
Method in brief: as §1

Chain of Ba/F3 EGFR L858R/T790M/C797S mutants (P00533 whole entry T790M/C797S/L858R): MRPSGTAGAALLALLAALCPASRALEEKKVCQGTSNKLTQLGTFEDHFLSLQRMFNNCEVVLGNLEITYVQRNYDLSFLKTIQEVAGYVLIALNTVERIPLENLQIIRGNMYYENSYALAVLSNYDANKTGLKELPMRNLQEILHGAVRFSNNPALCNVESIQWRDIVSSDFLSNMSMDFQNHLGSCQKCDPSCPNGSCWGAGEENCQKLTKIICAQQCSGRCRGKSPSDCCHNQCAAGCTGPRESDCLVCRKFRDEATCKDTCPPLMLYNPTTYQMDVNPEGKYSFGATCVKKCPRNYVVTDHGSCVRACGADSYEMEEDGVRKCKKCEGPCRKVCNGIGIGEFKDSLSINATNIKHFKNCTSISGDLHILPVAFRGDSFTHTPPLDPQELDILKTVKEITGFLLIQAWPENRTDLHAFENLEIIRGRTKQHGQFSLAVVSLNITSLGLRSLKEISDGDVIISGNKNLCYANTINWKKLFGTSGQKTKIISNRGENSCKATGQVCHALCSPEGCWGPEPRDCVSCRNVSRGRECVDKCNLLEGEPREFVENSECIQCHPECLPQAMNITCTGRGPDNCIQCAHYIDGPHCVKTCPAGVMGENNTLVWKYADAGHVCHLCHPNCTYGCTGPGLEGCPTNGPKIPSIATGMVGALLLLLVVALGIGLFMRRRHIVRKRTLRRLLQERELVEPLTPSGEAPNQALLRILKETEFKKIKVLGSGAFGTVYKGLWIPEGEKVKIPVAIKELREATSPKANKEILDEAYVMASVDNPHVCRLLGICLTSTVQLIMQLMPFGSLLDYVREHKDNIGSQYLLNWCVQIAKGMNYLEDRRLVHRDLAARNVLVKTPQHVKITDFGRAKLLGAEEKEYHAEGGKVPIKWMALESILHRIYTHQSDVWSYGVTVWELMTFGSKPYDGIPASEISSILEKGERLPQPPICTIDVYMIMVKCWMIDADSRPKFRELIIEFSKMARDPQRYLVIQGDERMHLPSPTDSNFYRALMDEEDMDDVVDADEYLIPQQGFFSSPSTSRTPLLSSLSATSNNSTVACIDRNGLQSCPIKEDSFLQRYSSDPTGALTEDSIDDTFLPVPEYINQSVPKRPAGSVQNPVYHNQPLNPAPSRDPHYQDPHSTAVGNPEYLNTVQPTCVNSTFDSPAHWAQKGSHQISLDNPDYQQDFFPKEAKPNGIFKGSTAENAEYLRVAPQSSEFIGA
Chain of Ba/F3 EGFR Del19/C797S mutants (P00533 with tags, fused parts or gaps DEL746-750/C797S, form open): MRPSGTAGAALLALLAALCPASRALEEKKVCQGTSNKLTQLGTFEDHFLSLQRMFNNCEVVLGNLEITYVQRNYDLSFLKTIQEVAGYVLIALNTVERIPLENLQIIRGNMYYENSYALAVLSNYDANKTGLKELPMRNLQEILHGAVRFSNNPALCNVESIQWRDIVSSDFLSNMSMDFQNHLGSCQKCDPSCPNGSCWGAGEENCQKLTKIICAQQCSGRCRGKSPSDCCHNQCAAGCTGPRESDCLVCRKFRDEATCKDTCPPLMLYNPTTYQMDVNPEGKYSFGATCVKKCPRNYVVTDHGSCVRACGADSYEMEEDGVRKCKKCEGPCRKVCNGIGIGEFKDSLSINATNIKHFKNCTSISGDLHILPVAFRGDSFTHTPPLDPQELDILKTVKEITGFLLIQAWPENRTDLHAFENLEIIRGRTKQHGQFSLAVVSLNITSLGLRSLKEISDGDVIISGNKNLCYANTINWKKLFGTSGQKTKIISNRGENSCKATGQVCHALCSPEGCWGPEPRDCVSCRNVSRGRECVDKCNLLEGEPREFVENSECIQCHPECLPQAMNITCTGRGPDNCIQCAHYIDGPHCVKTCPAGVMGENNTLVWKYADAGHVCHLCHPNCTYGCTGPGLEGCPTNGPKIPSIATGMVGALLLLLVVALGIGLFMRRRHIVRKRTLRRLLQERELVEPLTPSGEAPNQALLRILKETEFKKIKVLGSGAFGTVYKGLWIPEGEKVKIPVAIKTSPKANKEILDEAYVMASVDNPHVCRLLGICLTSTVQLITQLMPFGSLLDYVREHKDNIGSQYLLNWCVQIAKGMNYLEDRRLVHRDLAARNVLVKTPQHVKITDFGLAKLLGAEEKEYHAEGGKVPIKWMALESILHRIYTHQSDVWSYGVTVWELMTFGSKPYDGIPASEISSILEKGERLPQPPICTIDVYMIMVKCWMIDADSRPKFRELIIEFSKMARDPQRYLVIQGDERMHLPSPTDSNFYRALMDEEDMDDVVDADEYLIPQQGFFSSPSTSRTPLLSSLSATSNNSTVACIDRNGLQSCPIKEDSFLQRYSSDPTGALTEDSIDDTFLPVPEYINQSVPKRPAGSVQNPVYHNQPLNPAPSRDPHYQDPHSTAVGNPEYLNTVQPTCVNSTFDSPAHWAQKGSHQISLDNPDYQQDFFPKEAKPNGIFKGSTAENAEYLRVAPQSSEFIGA
Chain of Ba/F3 EGFR Wild-type (P00533 whole entry, change not shown): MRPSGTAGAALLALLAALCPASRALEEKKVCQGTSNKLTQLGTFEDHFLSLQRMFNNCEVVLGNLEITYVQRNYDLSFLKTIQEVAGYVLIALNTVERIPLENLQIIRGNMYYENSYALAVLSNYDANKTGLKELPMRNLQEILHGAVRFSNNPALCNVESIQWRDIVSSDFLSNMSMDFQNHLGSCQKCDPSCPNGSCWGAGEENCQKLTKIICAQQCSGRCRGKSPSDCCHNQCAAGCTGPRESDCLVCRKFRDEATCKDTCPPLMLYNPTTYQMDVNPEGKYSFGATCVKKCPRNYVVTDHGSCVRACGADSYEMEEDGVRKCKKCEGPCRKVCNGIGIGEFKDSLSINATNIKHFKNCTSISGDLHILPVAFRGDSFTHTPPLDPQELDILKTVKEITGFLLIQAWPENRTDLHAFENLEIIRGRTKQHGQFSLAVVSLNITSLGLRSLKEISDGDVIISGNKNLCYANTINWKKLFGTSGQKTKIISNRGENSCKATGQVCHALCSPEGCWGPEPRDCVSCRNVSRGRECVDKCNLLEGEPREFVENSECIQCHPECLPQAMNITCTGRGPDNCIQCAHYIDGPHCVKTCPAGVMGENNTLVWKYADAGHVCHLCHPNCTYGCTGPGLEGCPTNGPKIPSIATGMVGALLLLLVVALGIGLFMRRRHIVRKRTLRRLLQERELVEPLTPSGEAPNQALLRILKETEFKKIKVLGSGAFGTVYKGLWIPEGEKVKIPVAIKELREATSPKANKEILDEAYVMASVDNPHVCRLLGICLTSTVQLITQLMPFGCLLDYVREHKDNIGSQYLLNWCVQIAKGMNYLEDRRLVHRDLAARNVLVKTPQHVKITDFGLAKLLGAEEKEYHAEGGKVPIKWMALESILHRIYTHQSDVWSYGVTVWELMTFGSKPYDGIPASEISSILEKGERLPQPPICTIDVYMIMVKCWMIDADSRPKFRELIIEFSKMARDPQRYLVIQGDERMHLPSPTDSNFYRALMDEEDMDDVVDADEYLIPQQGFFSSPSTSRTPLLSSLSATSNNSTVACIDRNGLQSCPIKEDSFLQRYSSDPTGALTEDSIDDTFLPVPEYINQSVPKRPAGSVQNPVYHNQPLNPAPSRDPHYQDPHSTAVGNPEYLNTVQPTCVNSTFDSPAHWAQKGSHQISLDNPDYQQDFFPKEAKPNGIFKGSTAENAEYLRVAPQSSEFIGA
Chain of Ba/F3 EGFR L858R/C797S mutants (P00533 whole entry C797S/L858R): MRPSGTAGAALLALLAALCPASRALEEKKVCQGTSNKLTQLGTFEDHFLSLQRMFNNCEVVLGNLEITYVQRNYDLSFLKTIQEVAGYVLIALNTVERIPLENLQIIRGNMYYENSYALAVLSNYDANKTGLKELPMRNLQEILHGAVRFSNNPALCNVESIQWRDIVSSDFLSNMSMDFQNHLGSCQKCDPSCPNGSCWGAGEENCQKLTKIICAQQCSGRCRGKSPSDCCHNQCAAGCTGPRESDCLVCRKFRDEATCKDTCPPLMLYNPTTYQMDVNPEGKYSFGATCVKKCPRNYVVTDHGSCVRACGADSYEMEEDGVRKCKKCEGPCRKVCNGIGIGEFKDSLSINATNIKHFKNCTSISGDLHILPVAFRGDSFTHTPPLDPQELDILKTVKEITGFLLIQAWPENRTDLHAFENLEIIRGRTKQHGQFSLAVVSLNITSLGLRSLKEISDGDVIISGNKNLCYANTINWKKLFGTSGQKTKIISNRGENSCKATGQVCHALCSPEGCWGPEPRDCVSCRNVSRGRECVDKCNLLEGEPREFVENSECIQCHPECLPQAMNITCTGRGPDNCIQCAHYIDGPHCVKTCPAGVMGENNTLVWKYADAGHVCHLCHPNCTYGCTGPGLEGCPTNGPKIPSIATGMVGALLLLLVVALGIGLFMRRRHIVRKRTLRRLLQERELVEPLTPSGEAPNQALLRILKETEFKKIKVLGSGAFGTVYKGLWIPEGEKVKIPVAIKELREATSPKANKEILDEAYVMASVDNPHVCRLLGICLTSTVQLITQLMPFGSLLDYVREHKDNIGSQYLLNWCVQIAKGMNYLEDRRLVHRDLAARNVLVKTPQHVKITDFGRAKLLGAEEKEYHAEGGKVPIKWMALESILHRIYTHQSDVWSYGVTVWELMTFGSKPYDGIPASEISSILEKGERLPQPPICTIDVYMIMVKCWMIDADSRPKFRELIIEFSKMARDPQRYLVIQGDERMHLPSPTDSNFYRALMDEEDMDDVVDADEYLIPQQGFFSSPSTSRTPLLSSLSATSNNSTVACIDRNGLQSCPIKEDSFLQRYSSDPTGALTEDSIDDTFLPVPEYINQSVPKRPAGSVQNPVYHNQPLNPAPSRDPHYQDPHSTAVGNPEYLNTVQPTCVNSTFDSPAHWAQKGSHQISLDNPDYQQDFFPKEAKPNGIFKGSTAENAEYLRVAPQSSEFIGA

Compound | GI50 [1] [nM] | GI50 [2] [nM] | GI50 [3] [nM] | GI50 [4] [nM] | GI50 [5] [nM] | GI50 [6] [nM]
CCS(=O)(=O)Nc1c(Nc2nc(Nc3cc(C)c(N4CCC(N5CCN(C)CC5)CC4)cc3OC)ncc2Br)ccc2nccnc12 [Example A24, N-(6-((5-bromo-2-((2-methoxy-5-methyl-4-(4-(4-methylpiperazin-1-yl)piperidin-1-yl)phenyl)amino)pyrimidin-4-yl)amino)quinoxalin-5-yl)ethanesulfonamide] | 49 | 74 | 114 | 13 | 10 | 397
CCc1cc(Nc2ncc(Cl)c(Nc3ccc4c(c3N(C)S(C)(=O)=O)OCCO4)n2)c(OC)cc1N1CCC(N2CCOCC2)CC1 [Example C30, N-(6-((5-chloro-2-((5-ethyl-2-methoxy-4-(4-morpholinopiperidin-1-yl)phenyl)amino)pyrimidin-4-yl)amino)-2,3-dihydrobenzo[b][1,4]dioxin-5-yl)-N-methylmethanesulfonamide] | 6 | 13 | 38 | 35 | 10 | 664
COc1cc(N2CCC(N3CCN(C)CC3)CC2)c(C)cc1Nc1ncc(Cl)c(Nc2ccc3nccnc3c2NS(C)(=O)=O)n1 [Example A1, N-(6-((5-chloro-2-((2-methoxy-5-methyl-4-(4-(4-methylpiperazin-1-yl)piperidin-1-yl)phenyl)amino)pyrimidin-4-yl)amino)quinoxalin-5-yl)methanesulfonamide] | 17 | 6 | 33 | 17 | 7 | 312
COc1cc(C2CCNCC2)ccc1Nc1ncc(Cl)c(Nc2ccc3nccnc3c2NS(C)(=O)=O)n1 [Example B15, N-(6-((5-chloro-2-((2-methoxy-4-(piperidin-4-yl)phenyl)amino)pyrimidin-4-yl)amino)quinoxalin-5-yl)methanesulfonamide] | 581 | 746 | 1540 | 2140 | 1310 | > 2000
CCCc1cc(Nc2ncc(Cl)c(Nc3ccc4nccnc4c3N(C)S(C)(=O)=O)n2)c(OC)cc1N1CCC(N2CCOCC2)CC1 [Example A41, N-(6-((5-chloro-2-((2-methoxy-4-(4-morpholinopiperidin-1-yl)-5-propylphenyl)amino)pyrimidin-4-yl)amino)quinoxalin-5-yl)-N-methylmethanesulfonamide] | 8 | 28 | 210 | 258 | 44 | > 2000
CCCc1cc(Nc2ncc(Cl)c(Nc3ccc4nccnc4c3N(C)S(C)(=O)=O)n2)c(OC)cc1N1CCC(N2CCCC2)CC1 [Example A42, N-(6-((5-chloro-2-((2-methoxy-5-propyl-4-(4-(pyrrolidin-1-yl)piperidin-1-yl)phenyl)amino)pyrimidin-4-yl)amino)quinoxalin-5-yl)-N-methylmethanesulfonamide] | 2 | 7 | 80 | 117 | 33 | 1860
CCc1cc(Nc2ncc(Cl)c(Nc3ccc4c(c3NS(C)(=O)=O)OCCO4)n2)c(OC)cc1N1CCC(N2CCOCC2)CC1 [Example C15, N-(6-((5-chloro-2-((5-ethyl-2-methoxy-4-(4-morpholinopiperidin-1-yl)phenyl)amino)pyrimidin-4-yl)amino)-2,3-dihydrobenzo[b][1,4]dioxin-5-yl)methanesulfonamide] | 13 | 14 | 44 | 30 | 8 | 638
CCc1cc(Nc2ncc(Cl)c(Nc3ccc(OC)c(OC)c3N(C)S(C)(=O)=O)n2)c(OC)cc1N1CCC(N2CCOCC2)CC1 [Example C32, N-(6-((5-chloro-2-((5-ethyl-2-methoxy-4-(4-morpholinopiperidin-1-yl)phenyl)amino)pyrimidin-4-yl)amino)-2,3-dimethoxyphenyl)-N-methylmethanesulfonamide] | 79 | 46 | 82 | 191 | 176 | 1920
CCCc1cc(Nc2ncc(Cl)c(Nc3ccc4c(c3NS(C)(=O)=O)OCCO4)n2)c(OC)cc1N1CCC(N(C)C)CC1 [Example C13, N-(6-((5-chloro-2-((4-(4-(dimethylamino)piperidin-1-yl)-2-methoxy-5-propylphenyl)amino)pyrimidin-4-yl)amino)-2,3-dihydrobenzo[b][1,4]dioxin-5-yl)methanesulfonamide] | 23 | 27 | 61 | 52 | 20 | 769
COc1cc(C2CCN(C)CC2)ccc1Nc1ncc(Cl)c(Nc2ccc3nccnc3c2NS(C)(=O)=O)n1 [Example B23, N-(6-((5-chloro-2-((2-methoxy-4-(1-methylpiperidin-4-yl)phenyl)amino)pyrimidin-4-yl)amino)quinoxalin-5-yl)methanesulfonamide] | 100 | 112 | 302 | 354 | 154 | 868
COc1cc(N2CCC(N3CCCC3)CC2)c(C)cc1Nc1ncc(Cl)c(Nc2ccc3nccnc3c2NS(C)(=O)=O)n1 [Example A30, N-(6-((5-chloro-2-((2-methoxy-5-methyl-4-(4-(pyrrolidin-1-yl)piperidin-1-yl)phenyl)amino)pyrimidin-4-yl)amino)quinoxalin-5-yl)methanesulfonamide] | 28 | 100 | 83 | 23 | 31 | 266
COc1cc(N2CCC(N3CCN(C)CC3)CC2)ccc1Nc1ncc(Cl)c(Nc2ccc3c(c2NS(C)(=O)=O)OCCO3)n1 [Example C9, N-(6-((5-chloro-2-((2-methoxy-4-(4-(4-methylpiperazin-1-yl)piperidin-1-yl)phenyl)amino)pyrimidin-4-yl)amino)-2,3-dihydrobenzo[b][1,4]dioxin-5-yl)methanesulfonamide] | 281 | 260 | 345 | 356 | 152 | 755
CCc1cc(Nc2ncc(Br)c(N(C)c3ccc4nccnc4c3N(C)S(C)(=O)=O)n2)c(OC)cc1N1CCC(N(C)C)CC1 [Example B19, N-(6-((5-bromo-2-((4-(4-(dimethylamino)piperidin-1-yl)-5-ethyl-2-methoxyphenyl)amino)pyrimidin-4-yl)(methyl)amino)quinoxalin-5-yl)-N-methylmethane sulfonamide] | 36 | 25 | 182 | 82 | 20 | 1410
CCCc1cc(Nc2ncc(Br)c(Nc3ccc4nccnc4c3NS(C)(=O)=O)n2)c(OC)cc1N1CCC(N(C)C)CC1 [Example B13, N-(6-((5-bromo-2-((4-(4-(dimethylamino)piperidin-1-yl)-2-methoxy-5-propylphenyl)amino)pyrimidin-4-yl)amino)quinoxalin-5-yl)methanesulfonamide] | 41 | 60 | 114 | 22 | 13 | 468
CCc1cc(Nc2ncc(Br)c(Nc3ccc4nccnc4c3NS(C)(=O)=O)n2)c(OC)cc1N1CCC(N2CCCC2)CC1 [Example A33, N-(6-((5-bromo-2-((5-ethyl-2-methoxy-4-(4-(pyrrolidin-1-yl)piperidin-1-yl)phenyl)amino)pyrimidin-4-yl)amino)quinoxalin-5-yl)methanesulfonamide] | 4 | 6 | 57 | 18 | 8 | > 2000
CCc1cc(Nc2ncc(Cl)c(Nc3ccc(OC)cc3NS(C)(=O)=O)n2)c(OC)cc1N1CCC(N2CCOCC2)CC1 [Example C14, N-(2-((5-chloro-2-((5-ethyl-2-methoxy-4-(4-morpholinopiperidin-1-yl)phenyl)amino)pyrimidin-4-yl)amino)-5-methoxyphenyl) methanesulfonamide] | 4 | 4 | 22 | 21 | 2 | 415
CCc1cc(Nc2ncc(Cl)c(Nc3ccc4nccnc4c3NS(C)(=O)=O)n2)c(OC)cc1N1CCC(N2CC3CCC2CN3C)CC1 (stereo not drawn) [Example A45, N-(6-((5-chloro-2-((5-ethyl-2-methoxy-4-(4-(5-methyl-2,5-diazabicyclo[2.2.2]octan-2-yl)piperidin-1-yl)phenyl)amino)pyrimidin-4-yl)amino)quinoxalin-5-yl)methanesulfonamide] | 10 | 7 | 103 | 71 | 9 | 734
